The results in this text go back to ChEMBL document CHEMBL5728220, “[1,3]thiazin-2-amine compound, application, and pharmaceutical composition” (2021).

Each structure is given as a SMILES string.

This assay has as its target Beta-secretase 1 (Homo sapiens, UniProt P56817). In words: Activity Assay: The activity assay for the compound of each example was carried out in this experimental example, and the detailed test method was as follows:1. The test compound was formulated as 10 μmol/L solution in dimethylsulfoxide;2. Starting from 10 μmol/L, by 3-fold serial dilution, the inhibitory activity of each compound against the enzyme was tested in singlet state at 10 doses;3. IC50 values of test compounds were finally obtained.

Chain of Beta-secretase 1 (P56817 whole entry): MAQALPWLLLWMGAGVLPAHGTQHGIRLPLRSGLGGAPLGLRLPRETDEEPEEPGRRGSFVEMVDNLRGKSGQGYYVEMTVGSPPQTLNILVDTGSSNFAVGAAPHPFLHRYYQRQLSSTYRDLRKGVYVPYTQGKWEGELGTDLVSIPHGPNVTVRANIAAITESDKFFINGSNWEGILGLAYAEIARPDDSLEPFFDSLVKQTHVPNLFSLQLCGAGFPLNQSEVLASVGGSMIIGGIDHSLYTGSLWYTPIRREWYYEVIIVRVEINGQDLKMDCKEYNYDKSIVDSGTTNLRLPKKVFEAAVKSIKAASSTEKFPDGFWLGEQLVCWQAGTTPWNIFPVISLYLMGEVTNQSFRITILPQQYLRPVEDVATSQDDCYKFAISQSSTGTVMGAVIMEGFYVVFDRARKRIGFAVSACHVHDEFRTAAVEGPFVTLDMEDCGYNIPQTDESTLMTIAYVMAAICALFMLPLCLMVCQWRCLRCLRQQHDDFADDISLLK

Broadly, the IC50 is the concentration needed to halve the response being measured. High values mean weaker potency, low ones greater potency. Compound `C[C@H]1C[C@@]2(F)CSC(N)=N[C@@]2(c2cccc(NC(=O)c3ccc(Cl)cn3)c2)CO1` yielded an IC50 of 213 nM. In other words, the sub-micromolar range.
